Like-named read-outs stand apart in the source and are kept apart here.

We go through 27 compounds from patent US7659404B2, “Broad spectrum 2-(substituted-amino)-benzothiazole sulfonamide HIV protease inhibitors” (Tibotec Pharmaceuticals Ltd., priority 2001, dated 2010).

In one test the test system is wild type virus (IIIB). In words: HIV-AVE-MT4-MTT cellular assay, wild type virus (IIIB). The format is cell-based. The note with it: for EC50: Human immunodeficiency virus 1, IIIB; for HIV-AVE-MT4-MTT-IIIB-2-002 pEC50: wild type virus (IIIB). On the procedure:
(§1) HIV- or mock-infected MT4 cells were incubated for five days in the presence of various concentrations of the inhibitor. At the end of the incubation period, all HIV-infected cells have been killed by the replicating virus in the control cultures in the absence of any inhibitor. Cell viability is measured by measuring the concentration of MTT, a yellow, water soluble tetrazolium dye that is converted to a purple, water insoluble formazan in the mitochondria of living cells only. Upon solubilization of the resulting formazan crystals with isopropanol, the absorbance of the solution is monitored at 540 nm. The values correlate directly to the number of living cells remaining in the culture at the completion of the five day incubation. The inhibitory activity of the compound was monitored on the virus-infected cells and was expressed as EC50 and EC90. These values represent the amount of the compound required to protect 50% and 90%, respectively, of the cells from the cytopathogenic effect of the virus. The toxicity of the compound was measured on the mock-infected cells and was expressed as CC50, which represents the concentration of compound required to inhibit the growth of the cells by 50%. The selectivity index (SI) (ratio CC50/EC50) is an indication of the selectivity of the anti-HIV activity of the inhibitor.
A general note: Formazan colour is commonly taken as a measure of viable cells.

The next test has as its system virus strain F (R13025). The experiment in a line: microbe, parasite or virus in culture. The note with it: for EC50: Human immunodeficiency virus 1, MT4, read-out: HIV-AVE-MT4-MTT-R13025-2-002 pEC50, virus strain F (R13025), MT4 cells, MTT (converted); for HIV-AVE-MT4-MTT-R13025-2-002 pEC50: virus strain F (R13025), MT4 cells. The test is classed as cell-based, HIV. The protocol: as §1, with “At the end of the incubation period, all HIV-infected cells have been killed by the replicating virus in the control cultures in the absence of any inhibitor.” left out
(§2) Because of the increasing emergence of drug resistant HIV strains, the present compounds were tested for their potency against clinically isolated HIV strains harboring several mutations.
(§3) As a measure of the broad spectrum activity of the present compounds, the fold resistance (FR) defined as FR=EC50(mutant strain)/EC50(HIV-1 strain LAI).

The next test deals with virus strain S (R13080). The experiment in a line: microbe, parasite or virus in culture. The note with it: for EC50: Human immunodeficiency virus 1, MT4, read-out: HIV-AVE-MT4-MTT-R13080-2-002 pEC50, virus strain S (R13080), MT4 cells, MTT (converted); for HIV-AVE-MT4-MTT-R13080-2-002 pEC50: virus strain S (R13080), MT4 cells. The format is cell-based, HIV. The protocol: as §1, with “At the end of the incubation period, all HIV-infected cells have been killed by the replicating virus in the control cultures in the absence of any inhibitor.” left out
as §2, §3

Setting [1] is: MT4, wild type virus (IIIB), MT4 cells, MTT, read-out: HIV-AVE-MT4-MTT-IIIB-2-002 pEC50 (converted).

Consider `CC(C)CN(C[C@@H](O)[C@H](Cc1ccccc1)NC(=O)OCc1cncs1)S(=O)(=O)c1ccc2nc(NC(=O)c3cc(ON)cc(ON)c3)sc2c1` [Compound 162], for which the values for the EC50 in the test on wild type virus (IIIB) (setting [1]), with virus strain F (R13025) and in the test with virus strain S (R13080) were 20.4 nM, 46.8 nM and 158 nM, respectively.
For `CC(C)CN(C[C@@H](O)[C@H](Cc1ccccc1)NC(=O)OCc1cncs1)S(=O)(=O)c1ccc2nc(NC(=O)c3cccnc3)sc2c1` [Compound 163] the same measures were 11.5 nM, 49 nM and 214 nM.
Turning to `CC(C)CN(C[C@@H](O)[C@H](Cc1ccccc1)NC(=O)OCc1cncs1)S(=O)(=O)c1ccc2nc(NC(=O)c3ccoc3)sc2c1` [Compound 164], the EC50 in the test with wild type virus (IIIB) (setting [1]) is 7.08 nM; in the test with virus strain F (R13025), 33.9 nM; with virus strain S (R13080), 158 nM.
As for `CC(C)CN(C[C@@H](O)[C@H](Cc1ccccc1)NC(=O)OCc1cncs1)S(=O)(=O)c1ccc2nc(NC(=O)c3ccccn3)sc2c1` [Compound 165], the values for the EC50 in the test on wild type virus (IIIB) (setting [1]), with virus strain F (R13025) and in the test on virus strain S (R13080) were 44.7 nM, 123 nM and 631 nM, respectively.
The matching figures for `CC(C)CN(C[C@@H](O)[C@H](Cc1ccccc1)NC(=O)OCc1cncs1)S(=O)(=O)c1ccc2nc(NC(=O)[C@@H]3CCCN3C)sc2c1` [Compound 166]: 6.31 nM, 21.9 nM and 74.1 nM.
`CC(C)CN(C[C@@H](O)[C@H](Cc1ccccc1)NC(=O)OCc1cncs1)S(=O)(=O)c1ccc2nc(NC(=O)OC(C)C)sc2c1` [Compound 167]: the EC50 in the test on wild type virus (IIIB) (setting [1]) is 4.9 nM; in the test on virus strain F (R13025), 30.9 nM; with virus strain S (R13080), 141 nM.
The matching figures for `CC(C)CN(C[C@@H](O)[C@H](Cc1ccccc1)NC(=O)OCc1cncs1)S(=O)(=O)c1ccc2nc(NC(=O)c3ccncc3)sc2c1` [Compound 168]: 24.5 nM, 31.6 nM and 135 nM.
For `CC(=O)Nc1nc2ccc(S(=O)(=O)N(CC(C)C)C[C@@H](O)[C@H](Cc3ccccc3)NC(=O)OCc3cncs3)cc2s1` [Compound 169], the EC50 in the test on wild type virus (IIIB) (setting [1]) was 8.51 nM; in the test with virus strain F (R13025) it was 6.76 nM; in the test on virus strain S (R13080), 35.5 nM.
For `CCOC(=O)Nc1nc2ccc(S(=O)(=O)N(CC(C)C)C[C@@H](O)[C@H](Cc3ccccc3)NC(=O)OCc3cncs3)cc2s1` [Compound 170], the EC50 in the test on wild type virus (IIIB) (setting [1]) was 7.59 nM; in the test on virus strain F (R13025) it was 17.4 nM; with virus strain S (R13080), 162 nM.
For `CC(C)COC(=O)Nc1nc2ccc(S(=O)(=O)N(CC(C)C)C[C@@H](O)[C@H](Cc3ccccc3)NC(=O)OCc3cncs3)cc2s1` [Compound 171] the same measures were 51.3 nM, 186 nM and 851 nM.
For the compound `CC(C)CN(C[C@@H](O)[C@H](Cc1ccccc1)NC(=O)OCc1cncs1)S(=O)(=O)c1ccc2nc(NC(=O)c3ccno3)sc2c1` [Compound 172], the EC50 is 42.7 nM in the test on wild type virus (IIIB) (setting [1]), 245 nM with virus strain F (R13025) and 813 nM in the test with virus strain S (R13080).
`CC(C)CN(C[C@@H](O)[C@H](Cc1ccccc1)NC(=O)OCc1cncs1)S(=O)(=O)c1ccc2nc(N(C)C(=O)CN3CCN(C)CC3)sc2c1` [Compound 173]: the “HIV-AVE-MT4-MTT-IIIB-2-002 pEC50” value in the test on wild type virus (IIIB) (MT4 cells, MTT) is given as 8.25. Further, in the test with virus strain F (R13025), the “HIV-AVE-MT4-MTT-R13025-2-002 pEC50” value was 7.52. The “HIV-AVE-MT4-MTT-R13080-2-002 pEC50” value in the test with virus strain S (R13080) came out at 6.81.
In the case of `CC(C)CN(C[C@@H](O)[C@H](Cc1ccccc1)NC(=O)OCc1cncs1)S(=O)(=O)c1ccc2nc(N(C)C(=O)CN3CCOCC3)sc2c1` [Compound 174], in the test on wild type virus (IIIB) (MT4 cells, MTT), the “HIV-AVE-MT4-MTT-IIIB-2-002 pEC50” value is reported as 8.04. Besides, the “HIV-AVE-MT4-MTT-R13025-2-002 pEC50” value in the test on virus strain F (R13025) is reported as 6.88. Besides, in the test with virus strain S (R13080), the “HIV-AVE-MT4-MTT-R13080-2-002 pEC50” value is given as 6.18.
For the compound `CC(C)CN(C[C@@H](O)[C@H](Cc1ccccc1)NC(=O)OCc1cncs1)S(=O)(=O)c1ccc2nc(N(C)C(=O)CN(C)CCCN3CCCC3)sc2c1` [Compound 175], the “HIV-AVE-MT4-MTT-IIIB-2-002 pEC50” value in the test on wild type virus (IIIB) (MT4 cells, MTT) is listed as 7.3. The “HIV-AVE-MT4-MTT-R13025-2-002 pEC50” value in the test with virus strain F (R13025) is given as 6.03. In the test with virus strain S (R13080), the “HIV-AVE-MT4-MTT-R13080-2-002 pEC50” value was 5.5.
For the compound `CC(C)CN(C[C@@H](O)[C@H](Cc1ccccc1)NC(=O)OCc1cncs1)S(=O)(=O)c1ccc2nc(N(C)C(=O)CN(C)C)sc2c1` [Compound 176], in the test on wild type virus (IIIB) (MT4 cells, MTT), the “HIV-AVE-MT4-MTT-IIIB-2-002 pEC50” value was 8.39. Moreover, the “HIV-AVE-MT4-MTT-R13025-2-002 pEC50” value with virus strain F (R13025) turned out to be 7.2. The “HIV-AVE-MT4-MTT-R13080-2-002 pEC50” value with virus strain S (R13080) is recorded as 6.65.
Consider `CC(C)CN(C[C@@H](O)[C@H](Cc1ccccc1)NC(=O)O[C@H]1CO[C@H]2OCC[C@H]21)S(=O)(=O)c1ccc2nc(NC(=O)c3cncs3)sc2c1` [Compound 177], for which the values for the EC50 in the test with wild type virus (IIIB) (setting [1]), in the test with virus strain F (R13025) and with virus strain S (R13080) were 37.2 nM, 7.59 nM and 49 nM, respectively.
Turning to `CC(C)CN(C[C@@H](O)[C@H](Cc1ccccc1)NC(=O)O[C@H]1CO[C@H]2OCC[C@H]21)S(=O)(=O)c1ccc2nc(N(CCN3CCCC3)C(=O)OC3CO[C@@H]4OCO[C@H]34)sc2c1` (stereo partly drawn) [Compound 178], the EC50 in the test on wild type virus (IIIB) (setting [1]) was 17.4 nM; in the test with virus strain F (R13025) it was 10.7 nM; in the test with virus strain S (R13080) it was 33.9 nM.
With `CC(C)CN(C[C@@H](O)[C@H](Cc1ccccc1)NC(=O)OCc1cncs1)S(=O)(=O)c1ccc2nc(NC(=O)c3ccc[nH]3)sc2c1` [Compound 179], the EC50 in the test with wild type virus (IIIB) (setting [1]) is 8.91 nM; with virus strain F (R13025), 57.5 nM; in the test with virus strain S (R13080), 47.9 nM.
With `CC(C)CN(C[C@@H](O)[C@H](Cc1ccccc1)NC(=O)OCc1cncs1)S(=O)(=O)c1ccc2nc(N(C)C(=O)c3ccc[nH]3)sc2c1` [Compound 180], the values for the EC50 in the test with wild type virus (IIIB) (setting [1]), in the test on virus strain F (R13025) and in the test with virus strain S (R13080) were 155 nM, 891 nM and 10000 nM, respectively.
The matching figures for `CC(C)CN(C[C@@H](O)[C@H](Cc1ccccc1)NC(=O)OCc1cncs1)S(=O)(=O)c1ccc2nc(N(C)C(=O)c3cc[nH]c3)sc2c1` [Compound 181]: 33.1 nM, 525 nM and 1820 nM.
As to `CC(C)CN(C[C@@H](C)[C@H](Cc1ccccc1)NC(=O)OCc1cncs1)S(=O)(=O)c1ccc2nc(N(C)C(=O)c3ccncc3)sc2c1` [Compound 182], the EC50 in the test with wild type virus (IIIB) (setting [1]) is 4.79 nM; in the test on virus strain F (R13025) it was 36.3 nM; in the test on virus strain S (R13080), 170 nM.
Turning to `CC(C)CN(C[C@@H](O)[C@H](Cc1ccccc1)NC(=O)OCc1cncs1)S(=O)(=O)c1ccc2nc(NC(=O)C3CCCN(C)C3)sc2c1` (stereo partly drawn) [Compound 183], the EC50 in the test with wild type virus (IIIB) (setting [1]) was 3.55 nM; with virus strain F (R13025) it was 1.7 nM; in the test with virus strain S (R13080), 7.08 nM.
As for `CC(C)CN(C[C@@H](O)[C@H](Cc1ccccc1)NC(=O)O[C@H]1CO[C@H]2OCC[C@H]21)S(=O)(=O)c1ccc2nc(NCCN3CCCC3)sc2c1` [Compound 184], the EC50 in the test on wild type virus (IIIB) (MT4, read-out: HIV-AVE-MT4-MTT-IIIB-2-002 pEC50 (converted)) is 17.4 nM; with virus strain F (R13025), 4.47 nM; in the test with virus strain S (R13080) it was 26.9 nM.
For `CC(C)CN(C[C@@H](O)[C@H](Cc1ccccc1)NC(=O)O[C@H]1CO[C@H]2OCC[C@H]21)S(=O)(=O)c1ccc2nc(NCCN)sc2c1` [Compound 185], the EC50 in the test with wild type virus (IIIB) (setting [1]) was 45.7 nM; in the test on virus strain F (R13025), 33.1 nM; with virus strain S (R13080), 34.7 nM.
Take `CCN1CCCC1CNc1nc2ccc(S(=O)(=O)N(CC(C)C)C[C@@H](O)[C@H](Cc3ccccc3)NC(=O)O[C@H]3CO[C@H]4OCC[C@H]43)cc2s1` (stereo partly drawn) [Compound 186]: the EC50 in the test on wild type virus (IIIB) (setting [1]) was 6.17 nM; in the test on virus strain F (R13025), 6.61 nM; in the test with virus strain S (R13080), 28.8 nM.
On to `CC(C)CN(C[C@@H](O)[C@H](Cc1ccccc1)NC(=O)C(NC(=O)CNCc1cccc(F)c1)C(C)(C)C)S(=O)(=O)c1ccc2nc(NCCCN(C)C)sc2c1` (stereo partly drawn) [Compound 188], for which the EC50 in the test on wild type virus (IIIB) (setting [1]) is 200 nM; in the test on virus strain F (R13025) it was 93.3 nM; in the test with virus strain S (R13080), 132 nM.
Regarding `CC(C)CN(C[C@@H](O)[C@H](Cc1ccccc1)NC(=O)C(NC(=O)CNCc1cccc(F)c1)C(C)(C)C)S(=O)(=O)c1ccc2nc(NCCN3CCCC3)sc2c1` (stereo partly drawn) [Compound 189], the EC50 in the test with wild type virus (IIIB) (setting [1]) was 44.7 nM; in the test on virus strain F (R13025), 102 nM; in the test on virus strain S (R13080), 138 nM.
